Laboratory results published in ChEMBL document CHEMBL3832056, “DailyMed|setid=5ad109ec-1fff-498c-bc91-e2e5481122bc | RAMIPRIL- ramipril capsule|Lake Erie Medical DBA Quality Care Products LLC”.

How the values were obtained:
Homo sapiens [1] = test: Half-life of Ramiprilat, active metabolite of Ramipril, evaluated after oral administration of multiple doses of 5 mg Ramipril.; format: ADME, organism-based; details: in vivo, dose 5 to 10 mg, dosed compound id 51, dosed compound name RAMIPRIL, regimen Multiple dose, tissue Plasma
Homo sapiens [2] = test: Pharmacokinetic parameters for Ramipril, and its active metabolite Ramiprilat evaluated after oral administration of Ramipril.; format: ADME, organism-based; details: in vivo, dosed compound id 51, dosed compound name RAMIPRIL, regimen Single dose; for F: at 5 mg

t1/2 (Homo sapiens [1])	F (Homo sapiens [2]; tissue Plasma)	Tmax (Homo sapiens [2]; tissue Plasma)	Excretion (Homo sapiens [2]; tissue Feces)	Absorption (Homo sapiens [2]; tissue Plasma)	Excretion (Homo sapiens [2]; tissue Urine)	SMILES
13 to 17 h	44%	2 to 4 h				C[C@H](N[C@@H](CCc1ccccc1)C(=O)O)C(=O)N1[C@H](C(=O)O)C[C@@H]2CCC[C@@H]21 [RAMIPRILAT]
	28%	1 h	40%	50 to 60%	60%	CCOC(=O)[C@H](CCc1ccccc1)N[C@@H](C)C(=O)N1[C@H](C(=O)O)C[C@@H]2CCC[C@@H]21 [RAMIPRIL]
